Measurements published in the NIST ThermoML archive (doi:10.1021/je200757a).

Tests used:
[1] = xn = mol fraction of the nth substance listed; conditions: for viscosity / mass density: 101 kPa, Liquid; for viscosity: Capillary tube (Ostwald / Ubbelohde) method; for mass density: Vibrating tube method
[2] = refractive index (Na D-line) (dimensionless); xn = mol fraction of the nth substance listed; conditions: 101 kPa, Liquid

C1C[C@@H]2[C@H]3CC[C@H](C3)[C@@H]2C1 [exo-tetrahydrodicyclopentadiene] + CCCCCCCCC
surface tension liquid-gas [mN/m], [1], Capillary rise
Conditions	x2 = 0	x2 = 0.1089	x2 = 0.2212	x2 = 0.3244	x2 = 0.4159	x2 = 0.5099	x2 = 0.6161	x2 = 0.7128	x2 = 0.8078	x2 = 0.9133
293.15 K	31.86	30.17	27.92	27.12	26.34	25.59	24.35	23.84	23.14	22.6
303.15 K	31.09	29.01	27.45	26.63	25.74	24.86	23.36	22.88	22.39	21.81

Conditions	mass density, 293.15 K [kg/m3]	mass density, 298.15 K [kg/m3]	mass density, 303.15 K [kg/m3]	mass density, 313.15 K [kg/m3]	refractive index, 293.15 K	refractive index, 303.15 K	viscosity, 293.15 K [mPa·s]	viscosity, 298.15 K [mPa·s]	viscosity, 303.15 K [mPa·s]	viscosity, 313.15 K [mPa·s]
[1], x2 = 0	935.3	931.4	927.5	919.6	–	–	3.077	2.784	2.525	2.112
[1], x2 = 0.1089	907.6	903.7	899.8	891.9	–	–	2.455	2.229	2.04	1.728
[1], x2 = 0.2212	880.1	876.2	872.3	864.4	–	–	2.005	1.836	1.687	1.441
[1], x2 = 0.3244	855.8	851.9	848	840.1	–	–	1.683	1.545	1.426	1.227
[1], x2 = 0.4159	835.1	831.2	827.2	819.4	–	–	1.459	1.344	1.244	1.077
[1], x2 = 0.5099	814.5	810.6	806.6	798.8	–	–	1.277	1.176	1.091	0.951
[1], x2 = 0.6161	792	788.1	784.2	776.3	–	–	1.109	1.028	0.958	0.839
[1], x2 = 0.7128	772.3	768.4	764.5	756.7	–	–	0.985	0.917	0.856	0.754
[1], x2 = 0.8078	753.7	749.8	745.9	738	–	–	0.887	0.827	0.775	0.686
[1], x2 = 0.9133	733.7	729.8	725.9	718.1	–	–	0.795	0.744	0.699	0.622
[2], x2 = 0	–	–	–	–	1.4877	1.4832	–	–	–	–
[2], x2 = 0.1089	–	–	–	–	1.4777	1.4728	–	–	–	–
[2], x2 = 0.2212	–	–	–	–	1.4667	1.4627	–	–	–	–
[2], x2 = 0.3244	–	–	–	–	1.457	1.4517	–	–	–	–
[2], x2 = 0.4159	–	–	–	–	1.45	1.445	–	–	–	–
[2], x2 = 0.5099	–	–	–	–	1.4422	1.4377	–	–	–	–
[2], x2 = 0.6161	–	–	–	–	1.4332	1.4282	–	–	–	–
[2], x2 = 0.7128	–	–	–	–	1.426	1.421	–	–	–	–
[2], x2 = 0.8078	–	–	–	–	1.4192	1.4139	–	–	–	–
[2], x2 = 0.9133	–	–	–	–	1.4114	1.4062	–	–	–	–

C1C[C@@H]2[C@H]3CC[C@H](C3)[C@@H]2C1 [exo-tetrahydrodicyclopentadiene] + CCCCCCCCCCCC
Conditions	mass density, [1] [kg/m3]	refractive index, [2]	surface tension liquid-gas, [1] [mN/m]	viscosity, [1] [mPa·s]
293.15 K, x2 = 0	935.3	1.4877	31.86	3.077
293.15 K, x2 = 0.0803	913	1.4796	30.13	2.796
293.15 K, x2 = 0.1712	889.9	1.4711	29.15	2.54
293.15 K, x2 = 0.2563	870	1.462	28.63	2.34
293.15 K, x2 = 0.3428	851.4	1.4573	27.95	2.169
293.15 K, x2 = 0.4443	831.4	1.4502	27.32	2.006
293.15 K, x2 = 0.5407	814.1	1.4448	26.32	1.881
293.15 K, x2 = 0.6527	795.7	1.4383	25.94	1.764
293.15 K, x2 = 0.7596	779.8	1.4325	25.67	1.672
293.15 K, x2 = 0.8855	762.7	1.4271	24.51	1.574
298.15 K, x2 = 0	931.4	–	–	2.784
298.15 K, x2 = 0.0803	909.1	–	–	2.535
298.15 K, x2 = 0.1712	886.1	–	–	2.307
298.15 K, x2 = 0.2563	866.2	–	–	2.127
298.15 K, x2 = 0.3428	847.7	–	–	1.974
298.15 K, x2 = 0.4443	827.7	–	–	1.827
298.15 K, x2 = 0.5407	810.4	–	–	1.715
298.15 K, x2 = 0.6527	792	–	–	1.61
298.15 K, x2 = 0.7596	776.1	–	–	1.526
298.15 K, x2 = 0.8855	759.1	–	–	1.438
303.15 K, x2 = 0	927.5	1.4832	31.09	2.525
303.15 K, x2 = 0.0803	905.2	1.4733	29.37	2.308
303.15 K, x2 = 0.1712	882.2	1.4657	28.51	2.104
303.15 K, x2 = 0.2563	862.4	1.4571	27.82	1.944
303.15 K, x2 = 0.3428	843.9	1.4524	26.77	1.807
303.15 K, x2 = 0.4443	824	1.4455	26.51	1.674
303.15 K, x2 = 0.5407	806.6	1.4396	25.84	1.572
303.15 K, x2 = 0.6527	788.3	1.4333	25.68	1.476
303.15 K, x2 = 0.7596	772.5	1.4279	24.58	1.4
303.15 K, x2 = 0.8855	755.5	1.4214	23.82	1.321
313.15 K, x2 = 0	919.6	–	–	2.112
313.15 K, x2 = 0.0803	897.4	–	–	1.939
313.15 K, x2 = 0.1712	874.5	–	–	1.775
313.15 K, x2 = 0.2563	854.7	–	–	1.644
313.15 K, x2 = 0.3428	836.2	–	–	1.532
313.15 K, x2 = 0.4443	816.4	–	–	1.422
313.15 K, x2 = 0.5407	799.2	–	–	1.337
313.15 K, x2 = 0.6527	780.9	–	–	1.257
313.15 K, x2 = 0.7596	765.1	–	–	1.193
313.15 K, x2 = 0.8855	748.1	–	–	1.128

C1C[C@@H]2[C@H]3CC[C@H](C3)[C@@H]2C1 [exo-tetrahydrodicyclopentadiene] + CCCCCCCCCCCCC
Conditions	mass density, [1] [kg/m3]	refractive index, [2]	surface tension liquid-gas, [1] [mN/m]	viscosity, [1] [mPa·s]
293.15 K, x2 = 0	935.3	1.4877	31.86	3.077
293.15 K, x2 = 0.0757	913.9	1.4795	30.4	2.88
293.15 K, x2 = 0.1546	893.5	1.4726	29.63	2.703
293.15 K, x2 = 0.2392	873.7	1.4662	28.55	2.552
293.15 K, x2 = 0.3284	854.6	1.4586	28.03	2.419
293.15 K, x2 = 0.4236	836.3	1.4528	27.19	2.302
293.15 K, x2 = 0.5258	818.7	1.4468	26.68	2.198
293.15 K, x2 = 0.632	802.3	1.4407	25.95	2.108
293.15 K, x2 = 0.7477	786.3	1.4349	25.54	2.028
293.15 K, x2 = 0.8665	771.5	1.4306	25.19	1.963
298.15 K, x2 = 0	931.4	–	–	2.784
298.15 K, x2 = 0.0757	910	–	–	2.609
298.15 K, x2 = 0.1546	889.7	–	–	2.448
298.15 K, x2 = 0.2392	869.9	–	–	2.311
298.15 K, x2 = 0.3284	850.9	–	–	2.189
298.15 K, x2 = 0.4236	832.6	–	–	2.082
298.15 K, x2 = 0.5258	815	–	–	1.992
298.15 K, x2 = 0.632	798.7	–	–	1.913
298.15 K, x2 = 0.7477	782.7	–	–	1.842
298.15 K, x2 = 0.8665	767.9	–	–	1.789
303.15 K, x2 = 0	927.5	1.4832	31.09	2.525
303.15 K, x2 = 0.0757	906.1	1.4743	29.94	2.37
303.15 K, x2 = 0.1546	885.9	1.4683	28.98	2.233
303.15 K, x2 = 0.2392	866.1	1.4614	28.38	2.112
303.15 K, x2 = 0.3284	847.1	1.4541	27.21	2
303.15 K, x2 = 0.4236	828.9	1.4483	26.74	1.904
303.15 K, x2 = 0.5258	811.3	1.442	25.72	1.822
303.15 K, x2 = 0.632	795	1.4357	25.38	1.748
303.15 K, x2 = 0.7477	779	1.4305	24.83	1.689
303.15 K, x2 = 0.8665	764.3	1.4258	24.5	1.631
313.15 K, x2 = 0	919.6	–	–	2.112
313.15 K, x2 = 0.0757	898.4	–	–	1.975
313.15 K, x2 = 0.1546	878.2	–	–	1.86
313.15 K, x2 = 0.2392	858.4	–	–	1.759
313.15 K, x2 = 0.3284	839.5	–	–	1.669
313.15 K, x2 = 0.4236	821.4	–	–	1.587
313.15 K, x2 = 0.5258	803.9	–	–	1.521
313.15 K, x2 = 0.632	787.7	–	–	1.466
313.15 K, x2 = 0.7477	771.8	–	–	1.416
313.15 K, x2 = 0.8665	757	–	–	1.369
